Read-outs that look alike come from different tables or passages of the source.
Legend:
[1] = Pharmacokinetics of intravenous docetaxel with oral LC478 in rats; assay type: in vivo, Sprague–Dawley rats; details: for Vd: read-out: Vss
Description: For the intravenous study, rats were divided into three groups according to LC478 doses (0, 30, and 100 mg/kg LC478, respectively). […] To prevent blood clotting, 0.3 mL of 0.9% NaCl-injectable solution containing heparin (20 U/mL) was flushed into each cannula immediately after each blood sampling. […] At this time, each rat was sacrificed by withdrawing blood via a heart puncture, and then the entire gastrointestinal tract (including its contents and feces) was extracted and transferred into a beaker. […] A 100 μL aliquot of the supernatant was collected from each beaker.

in vivo = details: for Funabs (true unabsorbed fraction) / absorbed fraction in the gastrointestinal tract: 24 h
Excerpt: Male Sprague–Dawley rats at 6–9 weeks old (weighing 200–260 g) were purchased from Charles River Company Korea (Orient, Seoul, Korea). […] All rats were maintained in the same conditions as a reported method.
For the oral study, after overnight fasting with free access to water, rats were divided into three subgroups according to the doses of LC478 administered, which were the same as in the intravenous study. […] Other procedures were followed to the intravenous study.
Based on the standard methods, we calculated the following pharmacokinetic parameters using non-compartmental analysis (WinNonlin®; Professional Edition version 2.1; Pharsight, Mountain View, CA, USA): The total area under the plasma concentration–time curve from time zero to last blood sampling time (AUClast) or time infinity (AUCinf) by log-linear trapezoidal extrapolation method, terminal half-life, time-averaged total body, renal, and non-renal clearances (CL, CLR, and CLNR, respectively), mean residence time (MRT), apparent volume of distribution at a steady state (Vss), apparent oral clearance (CL/F), and apparent volume of distribution during elimination (Vz/F). We directly read the peak plasma concentration (Cmax) and time to reach Cmax (Tmax) from the experimental data.
The absorbed fraction of oral dose (Fabs), absolute bioavailability (F), and relative bioavailability (Frel) were calculated by the following equations. (1) F (%)=AUCinf, p.o/AUCinf, i.v×100 (2) Frel (%)=AUCinf with LC478/AUCinf without LC478×100 (3) GI24 h, p.o/100=(1−Fabs)+(F/100×GI24 h, i.v./100)

[2] = Disappearance of docetaxel in rat hepatic microsomes with LC478; assay type: in vitro ADME; details: hepatic microsomes
Description: (§1) The hepatic and intestinal microsomes were prepared based on a similar reported method.
(§2) Adding 0.1 M phosphate buffer (pH 7.4) adjusted the total volume as 0.5 mL, and then the components were incubated at 37 °C using a thermomixer at 500 opm. After incubation of 15 and 30 min for the hepatic and intestinal microsomes, respectively, 1 mL of acetonitrile with 5 µg/mL of paclitaxel as an internal standard added to terminate the reaction.
(§3) The unweighted kinetic data from rat hepatic and intestinal microsomes were fitted using a single-site Michaelis–Menten Equation V = Vmax × [S]/(Km + [S])(4) where [S] is the substrate concentration, Vmax is maximal velocity, and Km is substrate concentration for half-maximal velocity. The CLint was calculated by dividing the Vmax by the Km.

[3] = Disappearance of docetaxel in rat intestinal microsomes with LC478; assay type: in vitro ADME; details: intestinal microsomes
Description: as §1, §2, §3

[4] = Rat plasma protein binding of docetaxel by equilibrium dialysis; assay type: in vitro ADME; details: equilibrium dialysis
Description: A 1 mL of the plasma was dialyzed against 1 mL of isotonic Sørensen phosphate buffer (pH 7.4) containing 3% dextran (w/v) in a dialysis cell (Spectrum Medical Industries, Laguna Hills, CA, USA) using a Spectra/Por 4 membrane (mol. wt. cutoff 12−14 KDa; Spectrum Medical Industries, USA).

[5] = male, Sprague-Dawley, rat, plasma, iv, 20 mg/kg, rats, docetaxel 20 mg/kg intravenous, with 0 mg/kg LC478
[6] = male, Sprague-Dawley, rat, plasma, iv, 20 mg/kg, rats, docetaxel 20 mg/kg intravenous, with 30 mg/kg oral LC478
[7] = male, Sprague-Dawley, rat, plasma, iv, 20 mg/kg, rats, docetaxel 20 mg/kg intravenous, with 100 mg/kg oral LC478
[8] = rats, docetaxel 20 mg/kg intravenous, with 0 mg/kg LC478
[9] = rats, docetaxel 20 mg/kg intravenous, with 30 mg/kg oral LC478
[10] = rats, docetaxel 20 mg/kg intravenous, with 100 mg/kg oral LC478
[11] = male, Sprague-Dawley, rat, in vivo, po, 20 mg/kg
[12] = male, Sprague-Dawley, rat, in vivo, po, 30 mg/kg
[13] = male, Sprague-Dawley, rat, in vivo, po, 100 mg/kg

For `CC(=O)O[C@@]12CO[C@@H]1C[C@H](O)[C@@]1(C)C(=O)[C@H](O)C3=C(C)[C@@H](OC(=O)[C@H](O)[C@@H](NC(=O)OC(C)(C)C)c4ccccc4)C[C@@](O)([C@@H](OC(=O)c4ccccc4)[C@H]21)C3(C)C` [docetaxel], which “Ae0–24 h” value ([1]; bound over all LC478 groups) is on record?
Its value is “less than 1.56 % of dose”.

And the “contribution of CLR to CL” value ([1]; bound over all LC478 groups)?
The value was “less than 1.56%”.

And the “Ae0–24 h smaller by” value ([1]; intravenous docetaxel, 100 mg/kg LC478 vs 0 mg/kg LC478)?
Its value is 31.1%.

What about the “Ae0–24 h smaller by” value ([1]; intravenous docetaxel, 100 mg/kg LC478 vs 30 mg/kg LC478) of the same compound?
Its value is 37.2%.

What about the “CLR slower by” value ([1]; intravenous docetaxel, 100 mg/kg LC478 vs without LC478) of the same compound?
Its value is 40%.

And the GI24 h ([1]; intravenous docetaxel, bound over all LC478 groups)?
The GI24 h was “less than 1.76 % of the intravenous dose”.

And the AUC(0-inf) [1, 5]?
The AUC(0-inf) was 4420 ng·h/mL.

What about the AUC(0-t) [1, 5] of the same compound?
The AUC(0-t) was 4220 ng·h/mL.

And the CL renal [1, 5]?
The CL renal was 1.13 ± 0.431 mL/min/kg.

And the MRT [1, 5]?
Its MRT is 57.9 min.

What about the clearance [1, 5] of the same compound?
The clearance was 78.4 ± 13.1 mL/min/kg.

And the Vd [1, 5]?
Its Vd is 4.57 ± 1.03 L/kg.

What about the AUC(0-inf) [1, 6] of the same compound?
Its AUC(0-inf) is 5050 ng·h/mL.

What about the AUC(0-t) [1, 6] of the same compound?
The AUC(0-t) was 4830 ng·h/mL.

What about the CL renal [1, 6] of the same compound?
Its CL renal is 1.06 ± 0.235 mL/min/kg.

And the MRT [1, 6]?
The MRT was 58 min.

What about the clearance [1, 6] of the same compound?
The clearance was 67.9 ± 11.7 mL/min/kg.

And the half-life ([1]; male, Sprague-Dawley, rat, plasma, iv, 20 mg/kg, rats, docetaxel 20 mg/kg intravenous, with 30 mg/kg oral LC478, read-out: Terminal half-life)?
Its half-life is 144 ± 37.6 min.

And the Vd [1, 6]?
The Vd was 4.02 ± 1.36 L/kg.

What about the AUC(0-inf) [1, 7] of the same compound?
The AUC(0-inf) was 4580 ng·h/mL.

And the AUC(0-t) [1, 7]?
Its AUC(0-t) is 4470 ng·h/mL.

What about the CL renal [1, 7] of the same compound?
Its CL renal is 0.678 ± 0.253 mL/min/kg.

And the MRT [1, 7]?
The MRT was 67.1 min.

What about the clearance [1, 7] of the same compound?
The clearance was 70.4 ± 9.1 mL/min/kg.

What about the Vd [1, 7] of the same compound?
Its Vd is 4.91 ± 1.44 L/kg.

And the “Ae0–24 h” value [1, 8]?
Its value is 1.42 ± 0.418 % of dose.

And the CLNR [1, 8]?
Its CLNR is 77.2 ± 12.8 mL/min/kg.

And the GI24 h [1, 8]?
The GI24 h was 0.881 ± 0.411 % of dose.

What about the “Ae0–24 h” value [1, 9] of the same compound?
Its value is 1.56 ± 0.129 % of dose.

And the CLNR [1, 9]?
The CLNR was 66.8 ± 11.4 mL/min/kg.

And the Frel [1, 9]?
Its Frel is 114%.

And the GI24 h [1, 9]?
Its GI24 h is 1.01 ± 0.731 % of dose.

And the “Ae0–24 h” value [1, 10]?
Its value is 0.979 ± 0.365 % of dose.

What about the CLNR [1, 10] of the same compound?
The CLNR was 69.7 ± 9.13 mL/min/kg.

And the Frel [1, 10]?
Its Frel is 104%.

And the GI24 h [1, 10]?
The GI24 h was 1.76 ± 0.958 % of dose.

And the “CLR,fu (CLR considering the free fraction in plasma)” value (in vivo; male, Sprague-Dawley, rat, in vivo)?
The value was 5.04 mL/min/kg.

What about the “CLR,fu (CLR considering the free fraction in plasma)” value (in vivo; male, Sprague-Dawley, rat, in vivo, 30 mg/kg) of the same compound?
Its value is 5.15 mL/min/kg.

And the “CLR,fu (CLR considering the free fraction in plasma)” value (in vivo; male, Sprague-Dawley, rat, in vivo, 100 mg/kg)?
The value was 2.55 mL/min/kg.

What about the CLR (in vivo; [11]) of the same compound?
Its CLR is 3.43 ± 1.15 mL/min/kg.

And the Tmax (in vivo; [11])?
The Tmax was 15 min.

What about the AUC(0-t) (in vivo; male, Sprague-Dawley, rat, in vivo, po, 20 mg/kg, AUClast) of the same compound?
The AUC(0-t) was 82.8 ng·h/mL.

And the CL/F (in vivo; male, Sprague-Dawley, rat, in vivo, po, 20 mg/kg, CL/F)?
Its CL/F is 3040 ± 805 mL/min/kg.

What about the CL renal (in vivo; male, Sprague-Dawley, rat, in vivo, po, 20 mg/kg, CLR) of the same compound?
Its CL renal is 3.5 ± 1.1 mL/min/kg.

What about the Vd/F (in vivo; male, Sprague-Dawley, rat, in vivo, po, 20 mg/kg, Vz/F) of the same compound?
Its Vd/F is 670 ± 170 L/kg.

What about the “Funabs (true unabsorbed fraction)” value (in vivo; [12]) of the same compound?
The value was 36.5%.

What about the “absorbed fraction in the gastrointestinal tract” value (in vivo; [12]) of the same compound?
Its value is 0.635.

And the “F increased by” value (in vivo; [13])?
Its value is 102%.

And the “Frel increased by” value (in vivo; [13])?
Its value is 109%.

What about the “Funabs (true unabsorbed fraction)” value (in vivo; [13]) of the same compound?
The value was 20.0%.

And the “absorbed fraction in the gastrointestinal tract” value (in vivo; [13])?
Its value is 0.801.

What about the Tmax (in vivo; rats, docetaxel 20 mg/kg oral, with 30 mg/kg oral LC478) of the same compound?
The Tmax was 30 (15−30) min.

And the “Vmax for disappearance of docetaxel” value ([2]; 5 µM LC478)?
Its value is 0.438 ± 0.0578 nmol/min/mg protein.

What about the “Vmax for disappearance of docetaxel” value ([2]; 10 µM LC478) of the same compound?
The value was 0.427 ± 0.0411 nmol/min/mg protein.

And the “Vmax for disappearance of docetaxel” value ([3]; 0 µM LC478)?
Its value is 0.109 ± 0.0502 nmol/min/0.3 mg protein.

What about the “Vmax for disappearance of docetaxel” value ([3]; 1 µM LC478) of the same compound?
The value was 0.133 ± 0.0343 nmol/min/0.3 mg protein.

And the “Vmax for disappearance of docetaxel” value ([3]; 5 µM LC478)?
The value was 0.133 ± 0.0737 nmol/min/0.3 mg protein.

And the “Vmax for disappearance of docetaxel” value ([3]; 10 µM LC478)?
The value was 0.105 ± 0.0355 nmol/min/0.3 mg protein.

What about the “Bound fraction to fresh rat plasma” value ([4]; with 0 μg/mL LC478) of the same compound?
Its value is 30.6% ± 11.5%.

What about the “Bound fraction to fresh rat plasma” value ([4]; with 0.1 μg/mL LC478) of the same compound?
The value was 33.4% ± 3.59%.

What about the “Bound fraction to fresh rat plasma” value ([4]; with 10 μg/mL LC478) of the same compound?
Its value is 29.7% ± 10.1%.
